Read-outs that look alike come from different tables or passages of the source.
Legend:
[1] = tested on: Common Straight Swift Butterfly (Parnara guttata); experiment: Control test on common straight swift butterfly of paddy rice, powder spray, number of insects after 20 days (Test Example 9); type: in vivo; conditions: 20 days after spraying
Description: (§1) Control Test on Common Straight Swift Butterfly (Parnara guttata) and Sheath Blight (Rhizoctonia solani) of Paddy Rice
(§2) A powder of a prescribed amount was sprayed on rice (cultivar: koshihikari) after 70 days from the transplantation (middle of May) Leaves on which Parnara guttata was parasitic before spraying were eliminated. After 20 days from spraying, the number of insects was examined for 100 stumps in each plot. Furthermore, 7 days before spraying, Rhizoctonia solani cultured on a bran medium was inoculated into the base of the plant. After 30 days from spraying, the number of infected stumps was examined for 100 stumps in each plot and the rate of infected stumps was calculated. In the Table, gai represents the amount of active ingredients (g).

[2] = tested on: Sheath Blight (Rhizoctonia solani); experiment: Control test on sheath blight of paddy rice, powder spray, rate of infected stumps after 30 days; type: in vivo; conditions: 30 days after spraying
Description: as §1, §2

[3] = tested on: Rice Blast (Pyricularia oryzae); type: in vivo
[4] = tested on: Rice Striped Stem Borer (Chilo suppressalis)
[5] = tested on: Green Peach Aphid (Myzus persicae); type: in vivo; conditions: 3 ppm, foliar spray on eggplant, 5 days after spraying
[6] = tested on: 2-spotted Spider Mite (Tetranychus urticae); experiment: Insecticidal test on 2-spotted spider mite, kidney bean leaf disc with eggs, hatchability of larvae after 6 days; type: in vivo; conditions: 50 ppm; 6 days after spraying
Procedure: Insecticidal Test on 2-spotted Spider Mite (Tetranychus urticae)
A plastic cup having a diameter of 8 cm was filled with water and covered by a lid with a hole having a diameter of 1 cm. Absorbent cotton was put on the top of the lid and dropped into water from the lid such that the absorbent cotton was always in a wet state due to a capillary phenomenon. A leaf disc having a diameter of 2 cm was prepared with primary leaves of kidney beans (cultivar: Green top) and placed on the aforementioned absorbent cotton. 4 adult female insects of Tetranychus urticae were inoculated thereon. Next day, the adult female insects were removed, and then the number of insect egg was examined. A liquid chemical which was prepared to the prescribed concentration was sprayed by using a vertical sprayer. After spraying, the resulting cup was allowed to stand in an isothermal chamber maintained at 25 degree centigrade. After 6 days from spraying, the number of hatched larvae that survived on the leaf disc was examined and the hatchability of larvae was calculated (two replications of one concentration per chemical).

[7] = tested on: Resistant Cotton Melon Aphid (Aphis gossypii); type: in vivo; conditions: 3 ppm, foliar spray on cucumber, 5 days after spraying
[8] = tested on: Small Brown Planthopper (Laodelphax striatellus); experiment: Insecticidal test on small brown planthopper, sprayed rice seedlings, mortality after 6 days; type: in vivo; conditions: 3 ppm, sprayed rice seedlings, 6 days after treatment
Procedure: Insecticidal Test on Small Brown Planthopper (Laodelphax striatellus)
A liquid chemical which was diluted and prepared to the prescribed concentration was sprayed on rice seedlings (cultivar: koshihikari), air-dried, and then 10 three-stage insects of Laodelphax striatellus were put into a glass test tube having a diameter of 3 cm and a height of 10 cm along with the seedlings. The test tube was cotton plugged. After 6 days from the treatment, the number of surviving insects was examined and the mortality was calculated (two replications of 10 insects per plot).

[9] = tested on: Tiger Moth (Trichoplusia ni); experiment: Insecticidal test on tiger moth, cabbage leaf dip, mortality after 6 days; type: in vivo; conditions: 0.5 ppm; 6 days after treatment
Procedure: Insecticidal Test on Tiger Moth (Trichoplusia ni)
Cut leaves of cabbages (cultivar: shiki-kaku) were immersed in a liquid chemical which was diluted and prepared to the prescribed concentration for 30 seconds, air-dried, and then put into a plastic vessel having a diameter of 9 cm. Each of 10 second-stage insects of Trichoplusia ni was inoculated and the resulting vessel was allowed to stand in an isothermal chamber maintained at 25 degree centigrade. After 6 days from the treatment, the number of surviving insects was examined and the mortality was calculated (two replications of 10 insects per plot).

[10] = tested on: Rice Leafroller (Cnaphalocrocis medinalis); experiment: Control test on rice leafroller, nursery box application of paddy rice, infected leaf rate after 50 days; type: in vivo; conditions: 50 days after transplantation
Procedure: (§3) Control Test on Small Brown Planthopper (Laodelphax striatellus) and Rice Leafroller (Cnaphalocrocis medinalis) on Nursery Box Application of Paddy Rice
(§4) Rice (cultivar: Nihonbare) cultured in a nursery box was treated with 50 g of a granule formulation per box, and then transplanted to the rice field. For the control effect against Laodelphax striatellus, the number of parasitic insects was examined for 30 stumps per plot after 40 days and 60 days from the transplantation. In addition, for the control effect against Cnaphalocrocis medinalis, the number of infected leaves was examined for 100 stumps per plot after 50 days from the transplantation, and the infected leaf rate was calculated. In the Table, gai represents the amount of active ingredients (g).

[11] = tested on: Small Brown Planthopper (Laodelphax striatellus); experiment: Control test on small brown planthopper, nursery box application of paddy rice, number of parasitic insects after 40 and 60 days; type: in vivo
Procedure: as §3, §4

[12] = tested on: Common Straight Swift Butterfly (Parnara guttata); experiment: Control test on common straight swift butterfly of paddy rice, powder spray, number of insects after 20 days (Test Example 8); type: in vivo; conditions: 20 days after spraying
[13] = tested on: Rice Blast (Pyricularia oryzae); type: in vivo; conditions: panicle blast, 30 days after spraying
[14] = tested on: Oriental Fruit Moth (Grapholita molesta); experiment: Control test on oriental fruit moth of pear, spray, rate of infected fruit after 40 days; type: in vivo; conditions: 75 ppm; 40 days after spraying
Procedure: (§5) Control Test on Oriental Fruit Moth (Grapholita molesta) and Scab (Venturia nashicola) of Pear
(§6) A liquid chemical which was prepared to the prescribed concentration was sufficiently sprayed on 17-year-old pears (cultivar: Hosui) (early June). After 40 days from spraying, the number of infected fruits due to Grapholita molesta was examined for all fruit in the plot, and the rate of infected fruit was calculated. Furthermore, after 14 days from spraying, infection of Venturia nashicola was examined by the degrees for optional 200 leaves in the plot and the severity index was calculated according to the following equation. Severity index=Z(number of infected leaves by the degrees×index)×100/(number of examined leaves×5)

[15] = tested on: Powdery Mildew (Sphaerotheca fuliginea); experiment: Control test on powdery mildew of cucumbers, spray, control value from severity index; type: in vivo; conditions: 3.15 ppm
Procedure: (§7) Insecticidal Test on Cucumber Moth (Diaphania indica) and Control Test on Powdery Mildew (Sphaerotheca fuliginea) of Cucumbers
(§8) A liquid chemical which was prepared to the prescribed concentration was sufficiently sprayed on cucumbers (cultivar: sagami-hanpaku) cultured in a greenhouse. After 7 days from spraying, leaves were cut off and put into a plastic cup (diameter: 10 cm, height: 10 cm) along with 5 of second-stage larvae of Diaphania indica, and the mortality was examined 4 days thereafter. Furthermore, 1 day after spraying, the leaves of cucumbers which were previously arranged to be infected by pathogen were uniformly wiped with Sphaerotheca fuliginea thereon using a paintbrush for inoculation and examined after 10 days thereafter. The area occupied by lesion per leaf of cucumber was examined in accordance with the following index, and the control value was calculated from the average severity index of each plot according to the following equation (two replications).
Severity Index • 0: No lesion • 1: Lesion area was not more than 5% • 2: Lesion area was from 6 to 25% • 3: Lesion area was from 26 to 50% • 4: Lesion area was not less than 51% Control Value=(1−average severity in the treated plot/average severity in the untreated plot)×100

[16] = tested on: Scab (Venturia nashicola); experiment: Control test on scab of pear, spray, severity index after 14 days; type: in vivo; conditions: 75 ppm; 14 days after spraying
Procedure: as §5, §6

[17] = tested on: Cucumber Moth (Diaphania indica); experiment: Insecticidal test on cucumber moth, sprayed cucumber leaves, mortality; type: in vivo; conditions: Diaphania indica; 3.15 ppm
Procedure: as §7, §8

Cc1nn(C)c(Cl)c1C(=O)Nc1cccc2c1C(C)OC2(C)C (stereo not drawn) [furametpyr]
Number of insects (number/100 stumps) ([1]; 20 gai/10a): 161 number/100 stumps | Rate of infected stumps (%) ([2]; 20 gai/10a): 2%

Cc1cc(C(F)(C(F)(F)F)C(F)(F)F)cc(C)c1NC(=O)c1cccc(N(C)C(=O)c2ccc(C#N)cc2)c1F [Compound 1217]
Pyricularia oryzae Control value ([3]; in vivo): 7 | Chilo suppressalis Mortality (%) ([4]; 5 gai/box): 90% | Control rate (%) [5]: 21% | Hatchability of larvae (%) [6]: 74% | Control rate (%) [7]: 15% | Mortality (%) [8]: 15% | Mortality (%) [9]: 65%

CCOC(=O)CCN(SN(C)C(=O)Oc1cccc2c1OC(C)(C)C2)C(C)C [benfuracarb]
Cnaphalocrocis medinalis Infected leaf rate (%) ([10]; 2.5 gai/box): 1.28% | Laodelphax striatellus Number of parasitic insects/30 stumps ([11]; 2.5 gai/box, 40 days): 12 insects/30 stumps | Laodelphax striatellus Number of parasitic insects/30 stumps ([11]; 2.5 gai/box, 60 days): 31 insects/30 stumps

O=[N+]([O-])NC1=NCCN1Cc1ccc(Cl)nc1 [imidacloprid]
Cnaphalocrocis medinalis Infected leaf rate (%) ([10]; 1 gai/box): 1.77% | Laodelphax striatellus Number of parasitic insects/30 stumps ([11]; 1 gai/box, 40 days): 0 insects/30 stumps | Laodelphax striatellus Number of parasitic insects/30 stumps ([11]; 1 gai/box, 60 days): 9 insects/30 stumps

Cc1cc(C(F)(C(F)(F)F)C(F)(F)F)cc(C)c1NC(=O)c1cccc(NC(=O)c2cccnc2Cl)c1 [Compound No. 106, N-(2,6-dimethyl-4-heptafluoroisopropyl)phenyl 3-[(2-chloropyridin-3-yl)carbonylamino]benzamide]
Pyricularia oryzae Control value ([3]; in vivo): 5 | Chilo suppressalis Mortality (%) ([4]; 5 gai/box): 90%

Cc1cc(C(F)(C(F)(F)F)C(F)(F)F)cc(C)c1NC(=O)c1cccc(N(C)C(=O)c2cccnc2F)c1F [Compound 1246]
Cnaphalocrocis medinalis Infected leaf rate (%) ([10]; 5 gai/box): 0.28% | Pyricularia oryzae Control value ([3]; in vivo): 0 | Laodelphax striatellus Number of parasitic insects/30 stumps ([11]; 5 gai/box, 40 days): 77 insects/30 stumps | Laodelphax striatellus Number of parasitic insects/30 stumps ([11]; 5 gai/box, 60 days): 137 insects/30 stumps | Chilo suppressalis Mortality (%) ([4]; 5 gai/box): 95%

Cc1cc(C(F)(C(F)(F)F)C(F)(F)F)cc(C)c1NC(=O)c1cccc(NC(=O)c2cccnc2Cl)c1F [compound 639]
Cnaphalocrocis medinalis Infected leaf rate (%) ([10]; 5 gai/box): 0.39% | Pyricularia oryzae Control value ([3]; in vivo): 3 | Laodelphax striatellus Number of parasitic insects/30 stumps ([11]; 5 gai/box, 40 days): 65 insects/30 stumps | Laodelphax striatellus Number of parasitic insects/30 stumps ([11]; 5 gai/box, 60 days): 120 insects/30 stumps | Chilo suppressalis Mortality (%) ([4]; 5 gai/box): 90% | Control rate (%) [5]: 10% | Hatchability of larvae (%) [6]: 82% | Control rate (%) [7]: 12% | Mortality (%) [8]: 0% | Mortality (%) [9]: 80%

CC(C)OC(=O)C(C(=O)OC(C)C)=C1SCCS1 [Isoprothiolane]
Pyricularia oryzae Control value ([3]; 6 gai/box): 92 | Chilo suppressalis Mortality (%) ([4]; 6 gai/box): 0%

CNC(=O)/C(=N/OC)c1ccccc1CO/N=C(C)/C(=N/OC)C(/C)=N/OC [orysastrobin]
Pyricularia oryzae Control value ([3]; 3.5 gai/box): 93 | Chilo suppressalis Mortality (%) ([4]; 3.5 gai/box): 5%

Cc1cc(C(F)(C(F)(F)F)C(F)(F)F)cc(C)c1NC(=O)c1cccc(N(C)C(=O)c2cccnc2)c1F [Compound 1244]
Cnaphalocrocis medinalis Infected leaf rate (%) ([10]; 5 gai/box): 0.25% | Laodelphax striatellus Number of parasitic insects/30 stumps ([11]; 5 gai/box, 40 days): 72 insects/30 stumps | Laodelphax striatellus Number of parasitic insects/30 stumps ([11]; 5 gai/box, 60 days): 132 insects/30 stumps

O=C1OCc2c(Cl)c(Cl)c(Cl)c(Cl)c21 [fthalide]
Number (insects/100 stumps) ([12]; 100 gai/10a): 150 insects/100 stumps | Pyricularia oryzae Control value ([13]; 100 gai/10a): 90

Cc1c(Cl)cc(-c2ccc(=O)[nH]n2)cc1Cl [diclomezine]
Number of insects (number/100 stumps) ([1]; 48 gai/10a): 167 number/100 stumps | Rate of infected stumps (%) ([2]; 48 gai/10a): 3%

CC(Oc1ccc(Cl)cc1Cl)C(=O)NC(C)(C#N)C(C)C (stereo not drawn) [fenoxanil]
Number (insects/100 stumps) ([12]; 40 gai/10a): 155 insects/100 stumps | Pyricularia oryzae Control value ([13]; 40 gai/10a): 88

C[C@@H](NC(=O)C(C#N)C(C)(C)C)c1ccc(Cl)cc1Cl (stereo partly drawn) [diclocymet]
Pyricularia oryzae Control value ([3]; 1.5 gai/box): 95 | Chilo suppressalis Mortality (%) ([4]; 1.5 gai/box): 0%

Cc1cccc2sc3nncn3c12 [tricyclazole]
Pyricularia oryzae Control value ([3]; 2 gai/box): 95 | Chilo suppressalis Mortality (%) ([4]; in vivo): 5%

C[C@H]1O[C@H](O[C@H]2[C@H](O)[C@@H](O)[C@@H](O)[C@H](O)[C@@H]2O)[C@@H](N)C[C@@H]1NC(=N)C(=O)O [kasugamycin]
Number (insects/100 stumps) ([12]; 12 gai/10a): 162 insects/100 stumps | Pyricularia oryzae Control value ([13]; 12 gai/10a): 91

O=C(Nc1ccccc1)N(Cc1ccc(Cl)cc1)C1CCCC1 [pencycuron]
Number of insects (number/100 stumps) ([1]; 60 gai/10a): 159 number/100 stumps | Rate of infected stumps (%) ([2]; 60 gai/10a): 1%

Cc1cc(C(F)(C(F)(F)F)C(F)(F)F)cc(C)c1NC(=O)c1cccc(N(C)C(=O)c2ccc(Cl)nc2)c1F [Compound 1247]
Cnaphalocrocis medinalis Infected leaf rate (%) ([10]; 5 gai/box): 0.25% | Laodelphax striatellus Number of parasitic insects/30 stumps ([11]; 5 gai/box, 40 days): 69 insects/30 stumps | Laodelphax striatellus Number of parasitic insects/30 stumps ([11]; 5 gai/box, 60 days): 121 insects/30 stumps | Control rate (%) [5]: 6% | Hatchability of larvae (%) [6]: 74% | Control rate (%) [7]: 10% | Mortality (%) [8]: 5% | Mortality (%) [9]: 65%

C=CCOC1=NS(=O)(=O)c2ccccc21 [probenazole]
Pyricularia oryzae Control value ([3]; 12 gai/box): 94 | Chilo suppressalis Mortality (%) ([4]; 12 gai/box): 5%

CC(C)Oc1cccc(NC(=O)c2ccccc2C(F)(F)F)c1 [flutolanil]
Number of insects (number/100 stumps) ([1]; 80 gai/10a): 153 number/100 stumps | Rate of infected stumps (%) ([2]; 80 gai/10a): 2%

CC(C)CC(C)c1sccc1NC(=O)c1cn(C)nc1C(F)(F)F (stereo not drawn) [penthiopyrad]
Grapholita molesta Infected fruit rate (%) [14]: 19.8% | Sphaerotheca fuliginea Control value [15]: 95 | Venturia nashicola Severity index [16]: 3.7 | mortality at 3.15 ppm [17]: 0%
